In ChEMBL document CHEMBL1201862, “PubChem BioAssay data set” (2004):
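Step 1: Grow cells in 96-well plates. Step 2: Expose to compound for 48 hours at 5 concentrations. Step 3: Interpolate endpoints linearly; if unreached, use highest concentration. GI50 marks 50% less growth.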 The source made the active and inactive calls. Cut-off read from the data, not from the text of the source: active = GI50 up to about 1.1 µM and inactive = higher.

What was measured:
Assay in all cases: DTP human tumour cell line panel, 48 h
HOP-18 = tested on: HOP-18
M19-MEL = tested on: M19-MEL
SNB-78 = tested on: SNB-78
XF498 = tested on: XF498
DLD-1 = tested on: DLD-1
RXF 631 = tested on: RXF 631
Hs-578T = tested on: Hs-578T
MDA-N = tested on: MDA-N
PC-3 = tested on: PC-3

Measured: GI50

COc1cc(C=C2C(=O)NC(=O)NC2=O)cc(OC)c1OC
inactive: HOP-18 > 100 µM | M19-MEL > 100 µM | SNB-78 > 100 µM | XF498 > 100 µM | DLD-1 > 100 µM

CNC(=O)CN(CC(N)=O)C(N)=O
inactive: M19-MEL > 100 µM | SNB-78 > 100 µM | XF498 > 100 µM | RXF 631 > 100 µM | DLD-1 > 100 µM

CN(C)CCCN1CCc2c([nH]c3ccccc23)C1c1cccnc1 (stereo not given)
inactive: M19-MEL > 100 µM | SNB-78 > 100 µM | XF498 > 100 µM | RXF 631 > 100 µM | DLD-1 > 100 µM

NC(=S)N1N=C2c3ccccc3CC[C@@H]2[C@@H]1c1ccccc1
inactive: HOP-18 20.8 µM | M19-MEL 4.97 µM | SNB-78 28.1 µM | RXF 631 7.85 µM | DLD-1 6.5 µM

CCCCN(CCCC)C(=Nc1ccccc1)N(CCCC)CCCC
inactive: HOP-18 1.76 µM | M19-MEL 8.39 µM | SNB-78 11.1 µM | XF498 2.05 µM | RXF 631 10.5 µM | DLD-1 6.38 µM

CC(C)OCN/C(N)=N\C#N
inactive: HOP-18 > 100 µM | M19-MEL > 100 µM | SNB-78 > 100 µM | XF498 > 100 µM | RXF 631 > 100 µM | DLD-1 59.7 µM

Nc1n/c(=N\c2ccccc2)ss1
inactive: HOP-18 > 100 µM | M19-MEL 99.5 µM | SNB-78 > 100 µM | XF498 > 100 µM | RXF 631 > 100 µM | DLD-1 > 100 µM

NS(=O)(=O)c1ccccc1C(=O)N/N=C(\c1nc2ccc([N+](=O)[O-])cc2[nH]c1=O)C(O)c1ccc([N+](=O)[O-])cc1 (stereo not given)
inactive: HOP-18 > 100 µM | M19-MEL > 100 µM | XF498 > 100 µM | DLD-1 > 100 µM

O=C(c1ccccc1)C1S(=O)(=O)OCCOS1(=O)=O
inactive: M19-MEL > 100 µM | SNB-78 > 100 µM | XF498 > 100 µM | RXF 631 > 100 µM | DLD-1 > 100 µM

CC(=O)OCCOCBr
inactive: HOP-18 > 100 µM | M19-MEL > 100 µM | XF498 > 100 µM | RXF 631 > 100 µM | DLD-1 > 100 µM

CCOC(=O)CC(=O)Sc1ccccc1
inactive: HOP-18 > 100 µM | M19-MEL 17.9 µM | XF498 34.4 µM | DLD-1 20 µM

Cc1ccc(/C=N/NS(=O)(=O)c2ccccc2)cc1C
inactive: HOP-18 > 100 µM | M19-MEL > 100 µM | SNB-78 > 100 µM | XF498 87.3 µM | DLD-1 > 100 µM

CC(=O)OCCC(O[Si](c1ccccc1)(c1ccccc1)C(C)(C)C)C(C)(C)O (stereo not given)
inactive: HOP-18 25.2 µM | M19-MEL 23.1 µM | SNB-78 59.4 µM | XF498 29.4 µM | RXF 631 34.3 µM

O=C(CC1(O)C(=O)Nc2ccccc21)c1ccc(Cl)cc1Cl (stereo not given)
inactive: M19-MEL > 100 µM | SNB-78 > 100 µM | XF498 > 100 µM | RXF 631 > 100 µM | DLD-1 > 100 µM

COC(=O)c1nc(NC#N)nc(O)c1C
inactive: HOP-18 > 100 µM | M19-MEL > 100 µM | SNB-78 > 60.5 µM | RXF 631 > 100 µM | DLD-1 > 100 µM

N#CC(C(=O)CCC(=O)Nc1ccc(Cl)c(Cl)c1)c1ccc(Cl)cc1 (stereo not given)
inactive: HOP-18 > 100 µM | M19-MEL 82.2 µM | SNB-78 > 100 µM | RXF 631 90.6 µM | DLD-1 55.5 µM

C=C(CN(C)C)C(=O)c1ccccc1Cl
inactive: HOP-18 19.5 µM | M19-MEL 18.3 µM | SNB-78 30.4 µM | RXF 631 21.2 µM | DLD-1 17.3 µM

O=C(Nc1ccccc1-c1nn(C(=S)Nc2ccccc2)c(=S)n(C(=S)Nc2ccccc2)c1=O)C(F)(F)F
inactive: HOP-18 30.1 µM | M19-MEL 28.2 µM | SNB-78 35.4 µM | XF498 23.1 µM | DLD-1 24.8 µM

O=C1C2CCC(C2)C12CC1(c3ccccc3)C(=O)c3ccccc3N1O2 (stereo not given)
inactive: HOP-18 > 100 µM | M19-MEL > 100 µM | SNB-78 > 100 µM | XF498 > 100 µM | DLD-1 > 100 µM

O=c1[nH]c(=O)n(C2OC(CO)C(O)C2O)cc1OCC(F)(F)F (stereo not given)
inactive: HOP-18 > 100 µM | M19-MEL > 100 µM | SNB-78 > 100 µM | XF498 > 100 µM | DLD-1 > 100 µM

C[C@@H](NC1CCCC[C@@H]1O)c1ccccc1 (stereo not given in full)
inactive: HOP-18 > 100 µM | M19-MEL > 100 µM | SNB-78 > 100 µM | XF498 > 100 µM | DLD-1 > 100 µM

CC(=O)OC1CC[C@@]2(C)C(CC[C@]3(C)C2CC=C2[C@@H]4C(C)[C@H](C)CCC4(C)CCC23C)[C@@]1(C)C(=O)O (stereo not given in full)
inactive: Hs-578T 25.7 µM | MDA-N 20.9 µM | HOP-18 16.3 µM | M19-MEL 23.1 µM | PC-3 15.4 µM | SNB-78 26.5 µM | XF498 16.9 µM | RXF 631 23.9 µM | DLD-1 18.7 µM
